Drawing on PubChem BioAssay (NCI), this text covers TGI and GI50 for eight compounds.

Common to all, as to test: NCI-60 cell line screen, 48 h
The test system of assay [1] is MCF7 breast.
Assay [2] deals with TK-10 renal.
Assay [3] relates to SK-MEL-5 melanoma.
The subject of assay [4] is NCI-H522 lung.
In assay [5] the test system is A498 renal.
Assay [6] relates to T-47D breast.
Assay [7] deals with 786-0 renal.
The test system of assay [8] is NCI-H23 lung.
Assay [9] has as its system BT-549 breast.
Assay [10] concerns RPMI-8226 leukemia.

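Where inhibition never reached the appropriate level, the endpoint shown equals the highest concentration tested. Otherwise, values were interpolated linearly from a five-concentration, 48-hour dose response in 96-well plates. GI50: concentration for 50% inhibition of growth. TGI: total growth inhibition.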

On to `Nc1nc(N)c2nn(-c3ccc(C(=O)O)cc3)nc2n1`, for which the TGI in [1], in assay [2], in assay [3], in [4], in assay [5] and in assay [6] was more than 100 µM each time. Further, the TGI in assay [7], in [8], in assay [9] and in assay [10] was more than 100 µM each time.

Consider `CN(C)c1ccc(/C=C/C(=O)c2ccc(Nc3nc(Nc4ccc(F)cc4)nc(Nc4ccc(Cl)cc4)n3)cc2)cc1`, for which the GI50 in [1] was 2.61 µM; in assay [2] it was 11.3 µM; in assay [3], 2 µM; in assay [4], 3.17 µM; in assay [5] it was 2.97 µM; in [6], 3.33 µM. Besides, the GI50 is 2.71 µM in [7], 5.95 µM in [8], 7.39 µM in [9] and 3.53 µM in assay [10]. The TGI is 21.5 µM in assay [1]; 81.3 µM in assay [2]; 10.9 µM in [3]; 24.1 µM in [4]; 18.1 µM in [5]; 45.2 µM in assay [6]. Besides, the TGI in assay [7] came out at 14.1 µM; in assay [8], 39.5 µM; in assay [9], 55.7 µM; in [10], 26.5 µM.

Take `CN1CCN(Cc2ccc(NC(=O)c3cncc(C#Cc4c(N)ncc5ccc(F)cc45)c3)cc2C(F)(F)F)CC1`: the GI50 in assay [1] was 0.297 µM; in assay [2], 0.96 µM; in [3], 0.69 µM; in assay [4] it was 1.75 µM; in [5], 0.299 µM; in assay [6], 23.8 µM. In addition, the GI50 in assay [7] is 0.911 µM; in assay [8] it was 0.574 µM; in [9], 2.14 µM; in [10], 0.757 µM. Also, the TGI is 1.53 µM in assay [1]; 2.29 µM in assay [2]; 1.36 µM in [3]; 11.5 µM in [4]; 1.26 µM in [5]; 50 µM in [6]. The TGI was determined as 1.81 µM in assay [7], 4.58 µM in assay [8], 8.66 µM in assay [9] and 3.87 µM in assay [10].

`C/C=C\C(C)=C/C(C)C(=O)CC(O)CC1CC(=O)NC(=O)C1` (centres undefined): the TGI in assay [1] is more than 100 µM; in assay [2], more than 100 µM; in assay [3], more than 100 µM; in [4], 13.6 µM; in [5], more than 100 µM; in assay [6], more than 100 µM. The TGI was more than 100 µM in [7], more than 100 µM in assay [8], more than 100 µM in assay [9] and more than 76.6 µM in assay [10].

As to `COc1ccc(-c2nccn2-c2cc(OC)c(OC)c(OC)c2)cc1`, the GI50 in assay [1] is 1.27 µM; in assay [2], 10.7 µM; in assay [3] it was 0.758 µM; in assay [4], 2.8 µM; in [5], 0.909 µM; in assay [6], 9.55 µM. Also, the GI50 in assay [7] was 13.6 µM; in [8], 9.09 µM; in assay [9] it was more than 32.1 µM; in [10], 8.06 µM. Also, the TGI in assay [1] is more than 100 µM; in [2], more than 100 µM; in assay [3] it was more than 69.5 µM; in assay [4] it was more than 100 µM; in assay [6], more than 100 µM; in assay [7], more than 100 µM. Also, the results for the TGI in assay [8], in [9] and in assay [10] were more than 100 µM, more than 100 µM and more than 93.2 µM, respectively.

Consider `O=C1C2=C(Nc3cc([N+](=O)[O-])ccc3N2)OC1c1c[nH]c2ccc(COc3ccccc3)cc12` (centres undefined), for which the TGI in assay [1], in assay [2], in assay [3], in assay [4], in assay [5] and in assay [6] was more than 100 µM in each case. Moreover, the TGI in [7], in assay [8], in assay [9] and in [10] was more than 100 µM in each case.

In the case of `CCS(=O)(=O)Nc1ccc(Oc2ccc(F)cc2F)c(-c2cn(C)c(=O)c3[nH]ccc23)c1`, the GI50 in assay [1] was less than 0.01 µM; in assay [2], less than 0.01 µM; in [3], 0.0727 µM; in assay [4], less than 0.01 µM; in assay [5], 0.157 µM; in assay [6], 0.0253 µM. Moreover, the GI50 in assay [7] is 0.192 µM; in [8], 0.0956 µM; in assay [9], 0.366 µM; in [10], less than 0.0232 µM. Also, the TGI in [1] was 14.3 µM; in assay [2], 1.25 µM; in [3], 7.29 µM; in assay [4], 5.92 µM; in assay [5] it was 4.01 µM; in assay [6], 30.1 µM. The TGI in assay [7] is 18.1 µM; in [8], 13.5 µM; in [9], 21.3 µM; in [10], 17.5 µM.

For `Cc1cccc(NC(=O)c2sc3nc4c(cc3c2N)CCC4)c1C`, the GI50 was 0.261 µM in assay [1]; 0.74 µM in assay [2]; 0.268 µM in assay [3]; 0.325 µM in assay [4]; 0.262 µM in assay [5]; 0.351 µM in assay [6]. Further, the GI50 in assay [7] was 0.367 µM; in assay [8], 0.749 µM; in assay [9], 0.443 µM; in assay [10], 0.346 µM. Further, the TGI in assay [1] turned out to be 13.6 µM; in assay [2] it was 26.5 µM; in assay [3], 11.1 µM; in assay [4] it was 16.5 µM; in assay [5], 0.938 µM; in [6], 34.7 µM. In addition, the TGI in assay [7] is 14.3 µM; in assay [8], more than 100 µM; in [9] it was 23.5 µM; in [10] it was 16.2 µM.
